From patent US12264146B2, “Rho kinase inhibitor, method for preparing same and uses thereof” (BEIJING INCREASE INNOVATIVE DRUG CO., LTD., priority 2018, dated 2025)

How the values were obtained:
[1] = tested on: subarachnoid hemorrhage in rats; assay: Rat subarachnoid hemorrhage (SAH) model by intravascular puncture, Sugawara bleeding score; format: in vivo; parameters: dose or concentration left out as unconfirmed; settings: tail vein injection, 2 administrations 4 h apart, scored 24 h after first administration (Sugawara)
Protocol: Rat subarachnoid hemorrhage (SAH) model was built by intravascular puncture. After being weighed, the rats were anesthetized with sodium pentobarbital (50 mg/kg) or chloral hydrate (300 mg/kg) by intraperitoneal injection, then fixed on their back and maintained the animal's body temperature at about 37° C. The rats' neck skin was shaved for surgery, a median incision was made on the neck, and muscle and fascia were separated along the inner edge of stemocleidomastoid muscle to expose the main and bifurcation of right common carotid artery, and expose the external and internal carotid arteries.
The bifurcation of internal carotid artery was gently clamped with ophthalmic forceps, the bifurcation of the internal carotid artery and the external carotid artery was pierced with a 6-gauge syringe needle, the ophthalmic forceps holding the bifurcation of internal carotid artery was slightly loosen, and No. 3 fishing thread was used to perform a puncture at the bleeding point, the ophthalmic forceps on the internal carotid artery was loosen, and the fishing thread was inserted into skull. […] After staying for 15 seconds, the thread for puncture was completely removed, and the skin was sutured after compression to stop the bleeding. 1.6 million units of penicillin potassium (400,000 units/ml, 0.2 ml/rat) was intramuscularly injected to avoid wound infection. For the sham operation group, the thread for puncture was removed when resistance was felt without piercing the bifurcation of the anterior cerebral artery and the middle cerebral artery, while the remaining operation steps were the same as the model group. After the operation, the rats were transferred to a thermal insulation blanket, then transferred to a squirrel cage when they were basically awake, and kept normally.
In this test experimental, 32 groups were set, i.e., Groups 1 to 32, in which Group 1 was a normal control group (healthy rats), Group 2 was a sham operation control group (not modeling by puncture), Group 3 was a model control group (modeling by puncture, administrated with normal saline), Group 4 was a positive control group (modeling by puncture, administrated with fasudil hydrochloride injection), and Groups 5 to 32 were test groups of the compounds of the present application (modeling by puncture, respectively administrated with the compounds of the present application); and there were 8 animals (purchased from SPF (Beijing) Biotechnology Co., Ltd., the certificate number was SYXK (Beijing) 2016-0002) in each group, half of them were female and half of them were male. The animals were subjected to fasting for 12 to 18 hours without prohibition of drinking water before modeling. […] The rats were euthanized 24 h after the first administration, and the brains were taken. According to Sugawara's method (Reference: Sugawara T, Ayer R, Jadhav V, et al. A new grading system evaluating bleeding scale in filament perforation subarachnoid hemorrhage rat model. J Neurosci Methods. 2008, 167(2):327-34), the subarachnoid hemorrhage amounts were scored, and the scoring results were as follows: […]

prostacyclin (PGI2) = assay: Expression of prostacyclin (PGI2) in EA.Hy926 endothelial cells, ELISA kit; format: cell-based; settings: EA.Hy926 cell supernatant, 24 h
Protocol: (§1) Commercially available cytokine kits were used to detect the effects of the compounds of the present application on vascular endothelium-derived contracting factor endothelin, vascular endothelium-derived relaxing factor endothelial nitric oxide synthase, nitric oxide, and prostacyclin factor. The detection was performed according to the kit instructions. When testing the effect of the compound of the present application on cytokines, a normal control group, a fasudil hydrochloride group, and high-, medium- and low-dose groups of the compounds of the present application were set up for testing. The fasudil hydrochloride used in this test example was purchased from Beijing Sihuan Pharmaceutical Co., Ltd., with the SFDA approval number of H20173349. The EA.Hy926 cells used in this test example were purchased from Suzhou Beina Chuanglian Biotechnology Co., Ltd.
EA.Hy926 cells were taken and inoculated in a 96-well plate at 5×10^4 cells/mL, 100 μL per well, and cultured adherently for 24 hours, then the test compound prepared in DMEM medium was added, and an equal volume of DMEM medium was added in the normal control group, then the cells were cultured at 37° C. for 24 hours, and then the cell supernatant was taken and placed in an EP tube, and centrifuged for 15 min at 3000 r/min and 15° C. The resulting supernatant was transferred to a new EP tube, and then the detection was performed according to the instruction of ELISA kit (purchased from Wuhan Elabscience Biotechnology Co., Ltd., Cat. No. E-EL-0022c), and the detection results were shown in Table 3.

nitric oxide (NO) = assay: Synthesis and secretion of nitric oxide (NO) in EA.Hy926 endothelial cells, NO detection kit; format: cell-based; settings: EA.Hy926 cell supernatant, 24 h
Protocol: as §1
EA.Hy926 cells were inoculated in a 24-well plate at 5×10^5 cells/mL, 400 μL per well, and cultured adherently for 18 hours, then the supernatant was discarded, the test compound prepared in DMEM medium was added, and an equal volume of DMEM medium was added in the normal control group, then the cells was cultured for 24 h in incubator, and then the cell supernatant was collected and detected according to the instructions of NO detection kit (purchased from Beyotime Institute of Biotechnology, Cat. No. 062617171017), and the detection results were shown in Table 5.

[2] = Toxicity test on endothelial cells EA.hy926, CCK-8 cell viability; format: cell-based; settings: human, 1000~0.32 μmol/L, 5-fold dilution, read-out: IC50 of Test compound (cytotoxicity on EA.hy926 cells)
Protocol: In this test example, 31 groups, i.e., Groups 1 to 31, were set, in which Group 1 was a blank control group, Group 2 was a normal control group, Group 3 was a positive control group, and Groups 4 to 31 were test groups of the compounds of the present application. The specific test operation comprised: 100 μL of endothelial cells EA.hy926 (purchased from Suzhou Beina Chuanglian Biotechnology Co., Ltd.) with a density of 5×10^4 was added to each well of a 96-well plate, and transferred to an incubator at 37° C. with 5% CO2 and saturated humidity conditions and cultured for 24 hours, 100 μL of 2× the test compound solution prepared and diluted with DMEM medium containing 10% fetal bovine serum was added, in which the test compound added in the positive control group was Fasudil hydrochloride (purchased from Beijing Sihuan Pharmaceutical Co., Ltd., SFDA approval number H20173349) solution with different concentrations, an equal volume of DMEM medium was added in the blank control group, an equal volume of PBS buffer was added in the normal control group, and a duplicate well was set for each concentration point. After adding the test compound, the culture was continued in the incubator for 24 hours, then 20 μL of CCK-8 detection solution (purchased from Beijing Solarbio Science & Technology Co., Ltd., Cat. No. CA1210) was added to each well, interacted at 37° C. for 2.5 hours, shaken and mixed well, and then the absorbance value at 450 nm was detected.
OD values were detected, and the cell viability values of test groups of different concentrations were calculated according to the cell viability calculation formula as follows: Cell viability=(Atest group−Ablank control)/(Anormal control−Ablank control)*100%
wherein A represented absorbance value at 450 nm.
Prism6.0 was used to obtain the inhibitor concentration-viability curve and to calculate the IC50 of the test compound, the correlation coefficient R^2>0.99; the inhibitor concentration-viability curves of Fasudil hydrochloride, R-YK1601, R-YK1603, R-YK1606, R-YK1607, R-YK1610 were shown in FIGS. 1 to 6, in which the abscissa was the logarithm on base 10 of the concentration of the test compound, and the ordinate was the cell activity (i.e., cell viability).

Row | SMILES | Cerebral hemorrhage volume score (x ± s) [1] | expression of prostacyclin in endothelial cells: Detection result of test compound at low dose (0.4 μM) (prostacyclin (PGI2)) [pg/mL] | expression of prostacyclin in endothelial cells: Detection result of test compound at medium dose (2 μM) (prostacyclin (PGI2)) [pg/mL] | expression of prostacyclin in endothelial cells: Detection result of test compound at high dose (10 μM) (prostacyclin (PGI2)) [pg/mL] | nitric oxide secretion in endothelial cells: Detection result of test compound at low dose (0.4 μM) (nitric oxide (NO)) [μm] | nitric oxide secretion in endothelial cells: Detection result of test compound at medium dose (2 μM) (nitric oxide (NO)) [μm] | nitric oxide secretion in endothelial cells: Detection result of test compound at high dose (10 μM) (nitric oxide (NO)) [μm] | IC50 at 24 h [2] [µM]
1 | COc1ncc(F)c2c(S(=O)(=O)N3CCCNC[C@H]3C)cccc12 [Compound R-YK1605, (R)-4-fluoro-1-methoxy-5-((2-methyl-1,4-diazacycloheptan-1-yl)sulfonyl)isoquinoline] | 12.95 ± 2.04 | 280.07 ± 7.00 | 274.72 ± 32.60 | 246.51 ± 1.44 | 0.950 ± 0.134 | 1.023 ± 0.006 | 1.122 ± 0.006 | 184
2 | C[C@@H]1CNCCCN1S(=O)(=O)c1cccc2c(O)ncc(Cl)c12 [Compound R-YK1606, (R)-4-chloro-5-((2-methyl-1,4-diazacycloheptan-1-yl)sulfonyl)isoquinolin-1-ol] | 12.69 ± 2.01 | 292.24 ± 2.59 | 278.32 ± 46.42 | 258.58 ± 7.57 | 1.131 ± 0.019 | 1.009 ± 0.102 | 1.158 ± 0.223 | 181
3 | CCc1cnc(O)c2cccc(S(=O)(=O)N3CCCNC[C@H]3C)c12 [Compound R-YK1607, (R)-4-ethyl-5-((2-methyl-1,4-diazacycloheptan-1-yl)sulfonyl)isoquinolin-1-ol] | 12.12 ± 2.06 | 249.20 ± 2.28 | 257.34 ± 7.96 | 241.68 ± 3.34 | 0.898 ± 0.006 | 0.924 ± 0.032 | 1.010 ± 0.006 | 230
4 | O=S(=O)(c1cccc2cnccc12)N1CCCNC[C@H]1C1CC1 [Compound R-YK1608, (R)-5-((2-cyclopropyl-1,4-diazacycloheptan-1-yl)sulfonyl)isoquinoline] | 13.18 ± 1.97 | 257.55 ± 4.12 | 251.98 ± 10.41 | 242.23 ± 1.75 | 0.918 ± 0.008 | 0.984 ± 0.042 | 1.105 ± 0.007 | 165
